In a melting point compilation (Tetko et al.; mined from patent text by program, amines drawn as free bases though some values may be those of a salt):

melting point | SMILES
210 to 212 °C | Cc1ccc(C(=O)n2c3c(c4ccccc42)CC(C(=O)O)CC3)cc1 (stereo unspecified)
190 to 191 °C | NS(=O)(=O)c1ccc(-c2oc3cc(F)ccc3c(=O)c2-c2ccc(Cl)c(Cl)c2)cc1
19 to 20 °C | CCCCCCN(O)C(=O)N(C)C
157 to 158 °C | N#Cc1ccc(C(=O)NCCC(=O)NC(CC(=O)OCc2ccccc2)C(=O)NC(Cc2ccccc2)C(=O)OCc2ccccc2)nc1 (stereo unspecified)
203 to 204 °C | CC(C)(O)c1cccc(-c2ccc3nc(-c4ccc5cc[nH]c5c4)cn3c2)c1
62.5 to 65.5 °C | CN(C)CCn1c(=O)sc2ccc(Cl)cc21
41 to 42 °C | CN(C/C=C\c1ccc(Cl)cc1)Cc1cccc2ccccc12
132 to 134 °C | CC(C)Oc1cc(CCC(=O)NS(=O)(=O)CCCc2ccccc2)n(Cc2ccc(Cl)cc2Cl)n1
214 to 217 °C | O=C(O)c1cc2ccc(OCCNC[C@H](O)COc3ccccc3)cc2o1
84.5 to 85.5 °C | Clc1cc(Cl)c2c(c1)CCC(N1CCCC1)=C2
132 to 133 °C | CC(C)COC(=O)N1CCN(c2c(C(=O)N3CCN(C)CC3)c3ccccc3n2-c2ccccc2)CC1
278 to 281 °C | O=C(O)Cc1ccc2occ(-c3ccc(C(=O)O)cc3)c2c1
87 to 90 °C | CCCN1CCC(c2c[nH]c3ccc(NS(C)(=O)=O)cc23)CC1
71 to 72 °C | CCOC(=O)c1cnc2sccc2c1Cl
166 to 167 °C | Cc1c(NC(=O)c2ccc(-c3ccc(Cl)s3)cc2F)ccc2cc(CN3CCCCCC3)cnc12
86 to 88 °C | O=C(O)[C@@H]1CCCN1C(=S)CCc1ccccc1
224 to 225 °C | CCN(c1c(-c2ccccc2)[nH]c(C)c1C(=O)c1ccccc1)S(=O)(=O)c1ccc(C)cc1
165 to 167 °C | Brc1ccc2c(c1)N=C(N1CCSCC1)c1cccc3c1N2CC3
294 to 296 °C | NC(=O)c1cc(-c2ccccc2)c(=O)n2c1-c1ccccc1C2
137 to 139 °C | COc1ccc2c3c(c(=O)oc2c1)CN(Cc1ccccc1Cl)CC3
63 to 65 °C | CC(C)(C)NCC(Cc1ccc(OCc2ccccc2)cc1)NCc1ccc(C(C)(C)C)cc1 (stereo unspecified)
212 to 213 °C | CC(=O)ONC(=N)c1ccc(-c2ccc(-c3ccc(C(=N)NOC(C)=O)o3)o2)cc1
156 to 157 °C | COc1ccc(CC(=O)NC(NC(=NC#N)Nc2ccccc2C)C(C)(C)C)cc1OC (stereo unspecified)
117 to 118 °C | Clc1ccc2c(c1)CCC(N1CCCC1)=C2
195 to 197 °C | COc1ccc(C(=O)Nc2ccccc2)cc1NCc1cccs1

melting point | SMILES
232 to 233 °C | CCc1cn(C2CC(O)C(CS(=O)(=O)Cc3ccccc3)O2)c(=O)[nH]c1=O (stereo unspecified)
104 °C | Cc1cnc2c(c1)CCCC2C(N)=O (stereo unspecified)
114 to 116 °C | O=C(Nc1nc(Cl)cc(Cl)n1)NS(=O)(=O)Nc1ccccc1C(=O)C1CC1
144 to 145 °C | CC(=O)OCc1cc(=O)n2ccsc2n1
159 °C | Cc1cnc2cc(NS(=O)(=O)c3cccc(Cl)c3C)ccc2n1
129 to 131 °C | Cc1c(Br)cccc1NS(=O)(=O)c1cc(S(=O)(=O)Nc2cccc(Br)c2C)c2cc(O)ccc2c1
152 °C | Clc1ccc2nc(Cl)cnc2c1
158 to 159 °C | Cc1nnc(SCC(=O)C23CC4CC(CC(C4)C2)C3)n1Cc1ccc(Cl)cc1
174 to 178 °C | Cc1cccc(Nc2nc(N)ncc2S(=O)(=O)NC(C)(C)C)c1
52 to 54 °C | CCCCCCCCCCCCCCCCCC(=O)CC(=O)OC
158 to 161 °C | CC12CC3(C)CC(CO)(C1)CC(CO)(C2)C3
81 °C | COc1ccc(OCc2ccccc2)cc1N
141 to 143 °C | CCOc1cc(C(=CC#N)c2ccc(OC)c([N+](=O)[O-])c2)ccc1OC
114 to 115 °C | O=C1CCCCC1c1cnc2ccccc2c1 (stereo unspecified)
244 to 246 °C | O=C(O)COc1cccc(CCc2nc(-c3ccccc3)c(-c3ccccc3)[nH]2)c1
238 °C | O=P(O)(O)C(O)(CCc1nccn1Cc1ccccc1)P(=O)(O)O
182 to 184 °C | COc1cc2c(Nc3ccc(Oc4cccnc4)cc3)c(C#N)cnc2cc1OCC1CCN(C)CC1
156 to 158 °C | O=C(O)CNC(=O)c1ccc([N+](=O)[O-])cc1F
98 to 100 °C | Cn1ccc(-c2cccc(C=O)n2)n1
251 °C | CCN(CC)C1CCN(c2ccc(-c3[nH]nc4c3C(=O)c3c(NC(=O)NN5CCOCC5)cccc3-4)cc2)CC1
120 °C | COc1cc(C(=O)CBr)ccc1OCC(F)(F)F
158 °C | COc1cccc2c1CCc1nc(-c3ccncc3)oc1-2
100 °C | O=C(O)CCCCCn1nnnc1S
73 to 74 °C | COc1cc(C(=O)C(Br)CCC2CCCCC2)c(OC)cc1Cl (stereo unspecified)
213 to 215 °C | CC12C=CCC=C1CCC1C2C(O)CC2(C)C(CCO)=CCC12 (stereo unspecified)

melting point | SMILES
62 to 63 °C | CN(C/C=C/C#CC(C)(C)C)Cc1cccc(N(C)Cc2ccccc2)c1
111 °C | CCC(=O)NCC1Cc2cccc3cccc1c23 (stereo unspecified)
155 to 156 °C | CCc1cc(CCc2nc3ccccc3o2)c(=O)[nH]c1C
159 to 160 °C | CCc1cc(NC(=O)C(CS)Cc2ccccc2)cc(C(=O)O)c1 (stereo unspecified)
160 to 161 °C | CCCCN(C)C(N)=C(C#N)C#N
120 to 124 °C | CCOC(=O)C1CCN(c2cc(-c3ccccc3)nc3ccc(F)cc23)CC1
145 to 147 °C | COc1cnc2sc(SCc3ccccc3)nn2c1=O
198 to 202 °C | CC1=Cc2cc3c(cc2C(c2ccc([N+](=O)[O-])c(C)c2)=NN1C(=O)NC1CC1)OCO3
132 to 133 °C | O=C(O)CCCC(=O)S[C@@H]1CC(=O)N(Cc2ccc(Oc3ccc(F)cc3)nc2)C1
91 to 94 °C | Cc1ccc(Cc2cnc(NCCCNc3ncccc3Cl)[nH]c2=O)cn1
158 to 160 °C | CC1=C(C2C=CN(C(=O)OCC(Cl)(Cl)Cl)C=C2)SCC(=O)N1
79 to 82 °C | CS(=O)(=O)Nc1ccc(/C=C\COCCCCCCNCC(O)c2cc(O)cc(O)c2)cc1 (stereo unspecified)
124 to 126 °C | CCC(CC)Nc1cc(C)nc2c1CCC(=O)N2c1c(C)cc(C)cc1C
114 to 116 °C | CCOC(=O)Cc1c(C)n(Cc2cccc(O)c2)c2ccc(OC)cc12
117 to 119 °C | N=Cc1ccccc1[N+](=O)[O-]
106 to 107 °C | O=C(O)CC(c1ccc(F)cc1)c1ccc(F)cc1
158 to 160 °C | O=c1c(CO)cc(-c2ccc3occc3c2)nn1Cc1ccc(F)cc1
213 to 215 °C | O=C(Nc1cccc2c1C(=O)c1c-2n[nH]c1-c1ccc(C(=O)NN2CCCC2)s1)NN1CCOCC1
176 to 178 °C | CC(Oc1ccc(Oc2cnc3cc(Cl)ccc3n2)cc1)C(=O)Nc1ccc(C(F)(F)F)cc1 (stereo unspecified)
74 to 75 °C | Clc1cc(-c2ccnc(NCC3CCCO3)n2)ccn1 (stereo unspecified)
125 to 135 °C | O=[N+]([O-])c1ccc(C=C/C=C/c2ccc(Cl)c(Cl)c2)cc1
159 to 163 °C | O=C1CCN(C(=O)c2ccc(Cl)cc2Cl)c2cc(Cl)ccc21
320 to 324 °C | CNC1=Nc2ccc(C3=NNC(=O)CC3)cc2C1(C)C
172 to 173 °C | Cc1ccc(C2CC(=O)C=C(N)C2)s1 (stereo unspecified)
200 to 204 °C | CCOc1cc2ncc(C#N)c(NCc3ccc(OC)c(OC)c3)c2cc1OCC

melting point | SMILES
134 to 136 °C | O=C1c2ccccc2C(=O)N1Cc1cc(I)ccc1Cl
55 to 57 °C | C=CC[C@H](CC(=O)OC(C)(C)C)C(=O)N[C@H](C(=O)OCc1ccccc1)C(C)(C)C
130 to 132 °C | CC(C)(C)c1csc(NC(=O)Nc2ccc(N3CCN(C(=O)Nc4ccc(OCCO)cc4C(F)(F)F)CC3)cc2)n1
241 to 242 °C | CCOC(=O)c1ncc2[nH]c3ccc(-c4ccccc4)cc3c2c1C
61 to 75 °C | CO[C@@H]1[C@@H](OC)[C@H](C)O[C@@H](ON(Cc2ccc(-c3ncn(-c4ccc(OC(F)(F)F)cc4)n3)cc2)C(=O)CCC(=O)O)[C@@H]1OC
204 to 205 °C | Nc1c(C(=O)Cc2ccccc2)[nH]c2cc(Cl)ccc12
210 to 214 °C | O=C(O)[C@H]1CCCN1C(=O)Cc1ccc(CC(=O)N2CCC[C@@H]2C(=O)O)cc1
238 °C | CC(C)C(=O)Nc1ccc(C(=O)Nc2ccccc2[N+](=O)[O-])cc1
122 to 124 °C | COC(=O)C(Oc1ccc(CCCCCCCl)cc1)c1ccc(Sc2ccc(Cl)cc2)cc1 (stereo unspecified)
209 to 211 °C | NC(N)=Nc1nc(-c2cccc(CSc3nc4ccccc4[nH]3)n2)cs1
65 to 66 °C | CC(=O)NCCc1cn(S(=O)(=O)c2ccc(C)cc2)c2ccc(OCCN3CCCCC3)cc12
100 to 105 °C | O[C@H](COc1cccc2[nH]ccc12)CN1CCC(c2c[nH]c3cc(C(F)(F)F)ccc23)CC1
137 to 139 °C | Nc1cccc(Oc2ccc(C(c3ccc(Oc4cccc(N)c4)cc3)(C(F)(F)F)C(F)(F)F)cc2)c1
89 to 91 °C | NS(=O)(=O)c1ccc(F)c(F)c1
85 to 88 °C | CO/C=C(/C(=O)OC)c1ccccc1CCl
60 to 61 °C | Cc1ccc(C=CCC#N)cc1
84 °C | NC[C@H]1COc2ccc(Cl)c(-c3ccccc3C(F)(F)F)c2O1
133 to 134 °C | c1ccc(-c2nc3ccccc3s2)nc1
249 to 251 °C | CCN(CC)S(=O)(=O)c1ccc2c(c1)-c1c(nc(C)[nH]c1=O)CC2
136 to 138 °C | Cc1ccnc(SCc2nccc(SCCCSc3ccc4ncc([N+](=O)[O-])n4n3)c2C)n1
127 to 130 °C | CCOC(=O)CC(=O)c1cc(F)c(OP(=O)(OCC)OCC)nc1Nc1ccc(F)cc1F
169 to 170 °C | CCCSc1ncc(CCC(=O)O)n1Cc1ccccc1Cl

SMILES | melting point
N#Cc1ccc(OC[C@H]2C[C@@H](O)CN2c2ccc(C#N)c3ccccc23)c2ccccc12 | 123 to 126 °C
CN1C(=O)C(C)(C)N=C(c2ccccc2F)c2cc(N3C(=O)NC(C)(C)C3=O)ccc21 | 286 to 287 °C
Cc1cccc2cc(N3CCN(C)CC3)[nH]c(=O)c12 | 224 to 225 °C
Nc1cc(F)c(N2CCNCC2)cc1Cl | 110 °C
